Earlier results as cited in publication PMC5014530 (Molecular Therapy. Nucleic Acids, 2016).

System: mitochondrial membranes

Substance: (KLAKLA)2
- Mechanism of apoptosis induction: disrupts mitochondrial membranes to cause apoptosis
